Our source for the IC50 values is patent publication US10723727B2, “Tubulysin analogs and methods for their preparation” (priority 2016, dated 2020).

For test [1], the system named is N87 (gastric cancer) cells. Put plainly: In vitro cell assay (MTS cell viability), N87. The class given is cell-based. The conditions noted are these: 96 h, free compounds; 96 hours after treatment. Here is the method:
(§1) In Vitro Cell Assay Procedure
(§2) Target expressing (BT474 (breast cancer), N87 (gastric cancer), HCC1954 (breast cancer), MDA-MB-361-DYT2 (breast cancer)) or non-expressing (HT-29) cells were seeded in 96-well cell culture plates for 24 hours before treatment. Cells were treated with 3-fold serially diluted antibody-drug conjugates or free compounds (i. e. no antibody conjugated to the drug) in duplicate at 10 concentrations. Cell viability was determined by CellTiter 96® AQueous One Solution Cell Proliferation MTS Assay (Promega, Madison Wis.) 96 hours after treatment. Relative cell viability was determined as percentage of untreated control. IC50 values were calculated using a four parameter logistic model #203 with XLfit v4. 2 (IDBS, Guildford, Surry, UK).

The test system of test [2] is MDA-MB-361-DYT2 (breast cancer) cells. Put plainly: In vitro cell assay (MTS cell viability), MDA-MB-361-DYT2. The test is classed as cell-based. To be noted: 96 h, free compounds; 96 hours after treatment. Here is the method: as §1, §2
Test [3] has as its target T1, tubulin/RB3-stathmin-like-domain (RB3-SLD-tdm) complex (Sus scrofa, UniProt P02550+P02554).
T1 construct: purchased Cytoskeleton, Inc. T240; host or cells: RB3-SLD was made in house in E. coli
Put plainly: Tubulin Peptide-Binding Site Competition Assay (fluorescence polarization). Further details: species or system Porcine. The conditions noted are these: FP competition with BODIPY-labeled vinca peptide probe; read after five hours at 22° C.; read-out: Tubulin Peptide-Binding Site Competition Assay IC50. Here is the method:
Tubulin Peptide-Binding Site Competition Assay
Tubulin binding potency was measured for payloads or cysteine-capped linker-payloads using a fluorescence polarization (FP) competition assay. The binding of a BODIPY-labeled vinca peptide probe (# B31) to a tubulin/RB3-stathmin-like-domain (RB3-SLD-tdm) complex generates a high FP signal, which can be decreased when mixing with test compounds that compete with the FP probe. The order of addition for the reagents in the FP assay was designed to pre-mix the FP probe with various concentrations of the test compound before mixing them with the tubulin/RB3-SLD-dm complex. The final assay concentrations of the probe, tubulin and RB3-SLD-dm were 3, 6, and 100 nM, respectively. IC50 for each test compound is obtained by fitting the dose-dependent FP signal change using GraphPad Prism version 5 software (La Jolla, Calif.) while Ki is converted from the IC50 using the equations described previously (Nikolovska-Coleska et al., 2004). The FP signals were measured on an Infinite M1000 (Tecan, San Jose, Calif.) using ProxiPlate-384 F Plus, Black (Perkin-Elmer, Waltham, Mass., Cat #6008260) with 15 μL of solution per well. Sample dilution and mixing were done using a Beckman Biomek XF (Brea, Calif.). Porcine tubulin was purchased from Cytoskeleton, Inc. (Denver, Colo., Cat #T240) and RB3-SLD was expressed in E. coli. and purified on Q and then Superdex75 columns. The FP assay test for each compound was run in duplicates by mixing 6 μL of solution 1 containing 2.5× test compound (2.5× serial dilution from 7.8 μM maximum concentration, 11 total concentrations) and 7.5 nM of the FP probe in 80 mM PIPES, pH 7.0, 0.02% Tween 20, 2 mM MgCl2, 1 mM EGTA and 3% DMSO with 9 μL of solution 2 containing […] porcine tubulin and 167 nM of RB3-SLD-dm peptide ([…]-[…]) on ProxiPlate-384 micro-plates.

SMILES strings stand for the structures.

Regarding `CC[C@H](C)[C@H](NC(=O)[C@H]1CCCCN1C)C(=O)N(C)[C@H](C[C@@H](OC(C)=O)c1nc(C(=O)NN(Cc2ccccc2)CC(C)C(=O)O)cs1)C(C)C` (stereo partly drawn) [#B4, 3-{2-[(2-{(1R,3R)-1-(acetyloxy)-4-methyl-3-[methyl(N-{[(2R)-1-methylpiperidin-2-yl]carbonyl}-L-isoleucyl)amino]pentyl}-1,3-thiazol-4-yl)carbonyl]-1-benzylhydrazinyl}-2-methylpropanoic Acid], the IC50 in test [1] was 3.38 nM; in test [2] it was 2.39 nM; in test [3], 4.6 nM.
In the case of `CC[C@H](C)[C@H](NC(=O)[C@@]1(C)CCCN1C)C(=O)N(C)[C@H](C[C@@H](OC(C)=O)c1nc(C(=O)N[C@@H](Cc2ccccc2)C[C@H](C)C(=O)O)cs1)C(C)C` [#B8, 1,2-dimethyl-D-prolyl-N-[(1R,3R)-1-(acetyloxy)-1-(4-{[(2R,4S)-4-carboxy-1-phenylpentan-2-yl]carbamoyl}-1,3-thiazol-2-yl)-4-methylpentan-3-yl]-N-methyl-L-isoleucinamide], the IC50 in test [1] was determined as 0.104 nM; in test [2] it was 0.063 nM; in test [3] it was 1.8 nM.
Taken in the same sequence, the figures for `CC[C@H](C)[C@H](NC(=O)[C@H]1CCCCN1C)C(=O)N(C)[C@H](C[C@@H](OC(C)=O)c1nc(C(=O)NC(Cc2ccccc2)c2nc(C(=O)O)cs2)cs1)C(C)C` (stereo partly drawn) [#B37, 2-(1-{[(2-{(1R,3R)-1-(acetyloxy)-4-methyl-3-[methyl(N-{[(2R)-1-methylpiperidin-2-yl]carbonyl}-L-isoleucyl)amino]pentyl}-1,3-thiazol-4-yl)carbonyl]amino}-2-phenylethyl)-1,3-thiazole-4-carboxylic acid] were 228 nM, 240 nM and 1.3 nM.
In the case of `CC[C@H](C)[C@H](NC(=O)[C@H]1CCCCN1C)C(=O)N(C)[C@H](C[C@@H](OC(C)=O)c1nc(C(=O)NCC2OCCc3ccccc32)cs1)C(C)C` (stereo partly drawn) [#B38, (1R,3R)-1-{4-[(3,4-dihydro-1H-isochromen-1-ylmethyl)carbamoyl]-1,3-thiazol-2-yl}-4-methyl-3-[methyl(N-{[(2R)-1-methylpiperidin-2-yl]carbonyl}-L-isoleucyl)amino]pentyl acetate], the IC50 in test [1] amounted to 3.06 nM; in test [2] it was 0.925 nM; in test [3], 4.8 nM.
In the same order, the values of `CCOC(=O)c1ncoc1[C@H](Cc1ccccc1)NC(=O)c1csc([C@@H](C[C@H](C(C)C)N(C)C(=O)[C@@H](NC(=O)[C@H]2CCCCN2C)[C@@H](C)CC)OC(C)=O)n1` [#B39, ethyl 5-[(1S)-1-{[(2-{(1R,3R)-1-(acetyloxy)-4-methyl-3-[methyl(N-{[(2R)-1-methylpiperidin-2-yl]carbonyl}-L-isoleucyl)amino]pentyl}-1,3-thiazol-4-yl)carbonyl]amino}-2-phenylethyl]-1,3-oxazole-4-carboxylate] are 1.39 nM, 0.602 nM and 4.7 nM.
Taken in the same sequence, the figures for `CC[C@H](C)[C@H](NC(=O)[C@]1(C)CCCN1C)C(=O)N(C)[C@H](C[C@@H](OC(C)=O)c1nc(C(=O)N[C@@H](Cc2ccccc2)C[C@H](C)C(=O)OC)cs1)C(C)C` [#B2, 1,2-dimethyl-L-prolyl-N-[(1R,3R)-1-(acetyloxy)-1-(4-{[(2R,4S)-5-methoxy-4-methyl-5-oxo-1-phenylpentan-2-yl]carbamoyl}-1,3-thiazol-2-yl)-4-methylpentan-3-yl]-N-methyl-L-isoleucinamide] were 11.8 nM, 5.54 nM and 92.2 nM.
For the compound `CC[C@H](C)[C@H](NC(=O)C1(N(C)C)CCCC1)C(=O)N(C)[C@H](C[C@@H](OC(C)=O)c1nc(C(=O)N[C@@H](Cc2ccccc2)C[C@H](C)C(=O)OC)cs1)C(C)C` [#B1, methyl (2S,4R)-4-{[(2-{(1R,3R)-1-(acetyloxy)-3-[(N-{[1-(dimethylamino)cyclopentyl]carbonyl}-L-isoleucyl)(methyl)amino]-4-methylpentyl}-1,3-thiazol-4-yl)carbonyl]amino}-2-methyl-5-phenylpentanoate], the concentration for half-maximal inhibition (IC50) was 18.9 nM in test [1], 19 nM in test [2] and 250 nM in test [3].
